# Reference: patent US6469037B2, “Prophylactic or therapeutic drug for renal diseases” (Takeda Chemical Industries, Ltd., priority 1993, dated 2002)
# Legend:
# in vivo = settings: both sexes, po
# Procedure: Acute Toxicity Test Compound 1: (±)-1-(cyclohexyloxycarbonyloxy)ethyl 2-ethoxy-1-[[2′-(1H-tetrazole-5-yl)biphenyl-4-yl]methyl]-1H-benzimidazole-7-carboxylate The LD50 of compound 1 is 2,000 mg/kg or more for 4-week-old Jcl:ICR mice (males and females) and for 5-week-old Jcl:Wister rats (males and females) via single oral administration.
# Wistar fatty rats = experiment: Antiproteinuric action in rats with non-insulin-dependent diabetes (Wistar fatty rats); format: in vivo
# Description: Antiproteinuric action in rats with non-insulin-dependent (NIDD) diabetes (Wistar fatty rats) (Ikeda, H., Shino, A., Matsuo, T., Iwatsuka, H., and Suzuoki, Z.: Diabetes, 30, 1045 (1981) or Kava, R. A., West, D. B., Lukasik, V. A., and Greenwood, M. R. C: Diabetes, 38,159 (1989) Compound 1: (±)-1-(cyclohexyloxycarbonyloxy)ethyl 2-ethoxy-1-[[2′-(1H-tetrazole-5-yl)biphenyl-4-yl]methyl]-1H-benzimidazole-7-carboxylate Method: On the basis of blood glucose level and urinary protein content, 11-week-old Wistar fatty rats were divided into two groups (vehicle-treated rats and rats treated with 1 mg/kg/day, p.o. of compound 1). Non-diabetic control rats (lean rats) were also used. Compound 1 was suspended in gum-arabic and the suspension was orally administered once a day for ten weeks. At the 2nd, 4th, 6th, 8th and 10th week of the treatment, 24 hour urine was collected. The urine was centrifuged at 3,000 rpm and a portion of the supernatant was desalted on a column (Pharmacia PD10). Urinary total protein content and albumin content were determined by Lowry and ELISA methods, respectively. Results: Table 2 summarizes the results. Urinary total protein content increased in vehicle-treated rats to about three times of the value in lean rats. This increase, however, was reduced to 1.2-1.5 times by the-treatment with compound 1. […] This increase, however, was reduced to 20-30 times by the treatment with compound 1. […] In non-insulin-dependent diabetic models, compound 1 is expected to be effective against diabetic nephropathy by decreasing the urinary protein without affecting the blood glucose level.
# [1] = tested on: rats with subtotally (5/6) nephrectomy; experiment: Antiproteinuric action in rats with subtotally (5/6) nephrectomy (focal glomerulosclerosis model); format: in vivo
# Description: Antiproteinuric action in rats with subtotally (5/6) nephrectomy (focal glomerulorsclerosis model; Meyer, T. W. and Renake, H. G.: Am. J. Physiol. 254, F856 (1988) or Yoshioka, T., Shiraga, H., Yoshida, Y., Fogo. A., Glick, A. D.: J. Clin. Invest. 82, 1614 (1988)) Compound 1: (±)-1-(cyclohexyloxycarbonyloxy)ethyl 2-ethoxy-1-[[2′-(1H-tetrazole-5-yl)biphenyl-4-yl]methyl]-1H-benzmidazole-7-carboxylate Method: Five-week-old male rats were anesthetized by intraperitoneal injection of pentobarbital sodium and ⅔ of the right kidney was removed. One week later, the entire left kidney was removed under similar anesthesia. After two-week breeding, 24-hour urine was collected and the total protein content and albumin content in the urine were determined by the use of A/G-B test (Wako Pure Chemistry Co., Ltd.). On the basis of urinary protein and blood pressure (BP), the rats were divided into two groups (vehicle-treated rats and rats treated with 1 mg/kg/day, p.o. of compound 1). Rats undergoing nephrectomy of the left kidney alone were also used as sham operated rats. Compound 1 was suspended in gum-arabic and the suspension was orally administered once a day for eight weeks. At the 2nd, 4th, 6th and 8th week of the treatment, 24-hour urine was collected. Results: Table 1 summarizes the results. Urinary total protein and albumin began to markedly increase in vehicle-treated rats two weeks after surgery. […] Since compound 1 suppresses aggravation of renal impairment, its efficacy in glomerulonephritis or diabetic nephropathy is expected.
# [2] = age 11 weeks (start of treatment, baseline), Wistar fatty rats, n = 6, mean ± standard error
# [3] = age 13 weeks, 1 mg/kg/day p.o., mean ± standard error
# [4] = age 15 weeks, 1 mg/kg/day p.o., mean ± standard error
# [5] = age 17 weeks, 1 mg/kg/day p.o., mean ± standard error
# [6] = age 19 weeks, 1 mg/kg/day p.o., mean ± standard error
# [7] = age 21 weeks, 1 mg/kg/day p.o., mean ± standard error
# [8] = 2 weeks after the first dose, 1 mg/kg/day p.o., mean ± standard error
# [9] = 4 weeks after the first dose, 1 mg/kg/day p.o., mean ± standard error
# [10] = 6 weeks after the first dose, 1 mg/kg/day p.o., mean ± standard error
# [11] = 8 weeks after the first dose, 1 mg/kg/day p.o., mean ± standard error
# [12] = Preadministration (baseline), 5/6 nephrectomized rats, n = 9, mean ± standard error
structure (smiles),measurement,setting,value
"CCOc1nc2cccc(C(=O)OC(C)OC(=O)OC3CCCCC3)c2n1Cc1ccc(-c2ccccc2-c2nnn[nH]2)cc1 (racemic) [Compound 1, (±)-1-(cyclohexyloxycarbonyloxy)ethyl 2-ethoxy-1-[[2′-(1H-tetrazole-5-yl)biphenyl-4-yl]methyl]-1H-benzimidazole-7-carboxylate]",LD50,"in vivo; Jcl:ICR, mouse",≥ 2000 mg/kg
same,LD50,"in vivo; Jcl:Wister, rat",≥ 2000 mg/kg
same,Effect on blood glucose level,"Wistar fatty rats; Wistar fatty rats, 1 mg/kg/day p.o.",did not affect blood glucose level
same,Urinary albumin content relative to the value in lean rats,"Wistar fatty rats; Wistar fatty rats, 1 mg/kg/day p.o., vehicle-treated about 100 times",20-30 times
same,Urinary total protein content relative to the value in lean rats,"Wistar fatty rats; Wistar fatty rats, 1 mg/kg/day p.o., vehicle-treated about three times",1.2-1.5 times
same,Urinary albumin,Wistar fatty rats; [2],6.5 ± 0.4 mg/24 hr
same,Urinary total protein,Wistar fatty rats; [2],101 ± 6 mg/24 hr
same,Urinary albumin,Wistar fatty rats; [3],11.2 ± 3.9 mg/24 hr
same,Urinary total protein,Wistar fatty rats; [3],69 ± 11 mg/24 hr
same,Urinary albumin,Wistar fatty rats; [4],14.8 ± 6.1 mg/24 hr
same,Urinary total protein,Wistar fatty rats; [4],91 ± 12 mg/24 hr
same,Urinary albumin,Wistar fatty rats; [5],21.8 ± 8.2 mg/24 hr
same,Urinary total protein,Wistar fatty rats; [5],97 ± 11 mg/24 hr
same,Urinary albumin,Wistar fatty rats; [6],10.7 ± 3.9 mg/24 hr
same,Urinary total protein,Wistar fatty rats; [6],79 ± 10 mg/24 hr
same,Urinary albumin,Wistar fatty rats; [7],15.4 ± 3.7 mg/24 hr
same,Urinary total protein,Wistar fatty rats; [7],74 ± 13 mg/24 hr
same,Urinary albumin,[1]; [8],6.3 ± 2.9 mg/100 g/24 hr
same,Urinary total protein,[1]; [8],30.9 ± 5.2 mg/100 g/24 hr
same,Urinary albumin,[1]; [9],6.8 ± 3.4 mg/100 g/24 hr
same,Urinary total protein,[1]; [9],27.7 ± 4.0 mg/100 g/24 hr
same,Urinary total protein and albumin (course versus vehicle-treated rats),"[1]; 5/6 nephrectomized rats, 1 mg/kg/day p.o. for eight weeks",these parameters did not increase
same,Urinary albumin,[1]; [10],7.4 ± 4.0 mg/100 g/24 hr
same,Urinary total protein,[1]; [10],17.6 ± 5.6 mg/100 g/24 hr
same,Urinary albumin,[1]; [11],5.6 ± 2.7 mg/100 g/24 hr
same,Urinary total protein,[1]; [11],24.4 ± 2.7 mg/100 g/24 hr
same,Urinary albumin,[1]; [12],7.3 ± 2.3 mg/100 g/24 hr
same,Urinary total protein,[1]; [12],32.8 ± 5.4 mg/100 g/24 hr
